From patent US20230398119A1, “COMBINATION THERAPY INVOLVING DIARYL MACROCYCLIC COMPOUNDS” (TURNING POINT THERAPEUTICS, INC., priority 2019, published 2023)

Assays:
[1] = test system: phosphorylation of AKT, ERK, FAK, STAT3 (NCI-H358); test: Immunoblotting for cellular kinase phosphorylation; assay type: cell-based, human; settings: NCI-H358 KRAS G12C; 0 to 3000 nM
Experimental: Half a million cells per well were seeded in 24 well plate for 24 hrs, and then treated with compounds for 4, 24 or 48 hours. Cells were collected after treatment and lysed in RIPA buffer (50 mM Tris, pH 7.4, 150 mM NaCl, 1% NP-40, 0.5% Deoxycholate, 0.1% SDS) supplemented with 10 mM EDTA, 1×Halt protease and phosphatase inhibitors (Thermo Scientific). Protein lysates (approximately 20 μg) was resolved on 4-12% Bolt Bis-Tris precasted gels with MES running buffer (Life Technologies), transferred to nitrocellulose membranes using Trans-Blot Turbo Transfer System (Bio-Rad) and detected with antibodies targeting phosphorylated STAT3, FAK, SRC, AKT, ERK, (Cell Signaling Technology), total STAT3, FAK, SRC, AKT, and ERK, (Cell Signaling Technology) Antibodies were typically incubated overnight at 4° C. with gentle shake, followed by washes and incubation with the appropriate HRP-conjugated secondary antibodies. Membranes were incubated with chemiluminescent substrate for 5 min at room temperature (SuperSignal West Femto, Thermo Scientific). The chemiluminescent images were acquired with a C-DiGit Imaging System (LI-COR Biosciences).

[2] = test system: Calu-6 cells; test: Caspase-Glo 3/7 apoptosis assay; assay type: cell-based, human; settings: single agent, 48 hours, trametinib 50 nM
Experimental: Two thousand cells per well were seeded in 384 well white plate, and then treated with compounds for 24 or 48 hours (37° C., 5% CO2). Cell caspase-3/7 activity, a major hallmark of apoptosis, was measured using Caspase-Glo® 3/7 detection assay (Promega) following the manufactures's protocol.

## C[C@H]1CNC(=O)c2cnn3ccc(nc23)N[C@H](C)c2cc(F)ccc2O1 [Compound 1, (7S,13R)-11-fluoro-7,13-dimethyl-6,7,13,14-tetrahydro-1,15-ethenopyrazolo[4,3-f][1,4,8,10]benzoxatriazacyclotridecin-4(5H)-one]
[1]
  inhibition of phosphorylation of AKT: dose-dependent response
  inhibition of phosphorylation of ERK: dose-dependent response
  inhibition of phosphorylation of FAK: dose-dependent response
  inhibition of phosphorylation of STAT3: dose-dependent response

## CC(=O)Nc1cccc(-n2c(=O)n(C3CC3)c(=O)c3c(Nc4ccc(I)cc4F)n(C)c(=O)c(C)c32)c1 [Trametinib, N-(3-{3-cyclopropyl-5-[(2-fluoro-4-iodophenyl)amino]-6,8-dimethyl-2,4,7-trioxo-3,4,6,7-tetrahydropyrido[4,3-d]pyrimidin-1(2H)-yl}phenyl)acetamide]
[2]
  caspase-3/7 activity: increased
